Laboratory results: the NIST ThermoML archive (doi:10.1007/s10765-015-1980-6)

Key:
[1] = xn = mol fraction of the nth substance listed; conditions: 101 kPa, Liquid; for speed of sound: Frequency=2 MHz; for mass density: Pycnometric method
[2] = 101 kPa, Liquid; for speed of sound: Frequency=2 MHz; for mass density: Pycnometric method

OCCOCCO [diethylene glycol] + OCCCCO
[1], Linear variable-path acoustic interferometer, x1 = 1
Conditions | speed of sound [m/s]
298.15 K | 1579.3
303.15 K | 1568
308.15 K | 1557.3
313.15 K | 1546.1

[1], x1 = 1
Conditions | mass density [kg/m3]
298.15 K | 1112.7
303.15 K | 1109.3
308.15 K | 1105.9
313.15 K | 1102.5

OCCOCCO [diethylene glycol]
[2]
Conditions | mass density [kg/m3] | speed of sound [m/s]
298.15 K | 1112.7 | 1579.3
303.15 K | 1109.3 | 1568
308.15 K | 1105.9 | 1557.3
313.15 K | 1102.5 | 1546.1

CCC(C)O (stereo unspecified) [butan-2-ol]
[2], Linear variable-path acoustic interferometer
Conditions | speed of sound [m/s]
298.15 K | 1212.2
303.15 K | 1194.1
308.15 K | 1175.3
313.15 K | 1157.4

[2]
Conditions | mass density [kg/m3]
298.15 K | 802.4
303.15 K | 798.3
308.15 K | 794.2
313.15 K | 790.1

CCCCO [butan-1-ol]
[2]
Conditions | mass density [kg/m3] | speed of sound [m/s]
298.15 K | 805.6 | 1241.1
303.15 K | 801.9 | 1223.8
308.15 K | 798.2 | 1205.8
313.15 K | 794.5 | 1188.8

CCC(C)O (stereo unspecified) [butan-2-ol] + OCCOCCO
[1], Linear variable-path acoustic interferometer, x2 = 0
Conditions | speed of sound [m/s]
298.15 K | 1212.2
303.15 K | 1194.1
308.15 K | 1175.3
313.15 K | 1157.4

[1], x2 = 0
Conditions | mass density [kg/m3]
298.15 K | 802.4
303.15 K | 798.3
308.15 K | 794.2
313.15 K | 790.1

OCCCCO [1,4-butanediol]
[2], Linear variable-path acoustic interferometer
Conditions | speed of sound [m/s]
298.15 K | 1601.6
303.15 K | 1589.3
308.15 K | 1577.7
313.15 K | 1565.6

[2]
Conditions | mass density [kg/m3]
298.15 K | 1012.6
303.15 K | 1009.6
308.15 K | 1006.7
313.15 K | 1003.7

CCCCO [butan-1-ol] + OCCOCCO
[1], x2 = 0
Conditions | mass density [kg/m3] | speed of sound [m/s]
298.15 K | 805.6 | 1241.1
303.15 K | 801.9 | 1223.8
308.15 K | 798.2 | 1205.8
313.15 K | 794.5 | 1188.8
